Measurements taken from patent US20230151434A1, “REAWAKENING OF DORMANT TUMOR CELLS BY MODIFIED LIPIDS DERIVED FROM STRESS ACTIVATED NEUTROPHILS” (The Wistar Institute of Anatomy and Biology, priority 2020, published 2023).
Entries after “also recorded” stand apart in the source; their conditions may differ.

Assays:
[1] = system: KPr, KPr^p53P and KPr^p53A^react cells; assay: Cell proliferation (luciferase activity); format: cell-based, mouse; conditions: 5 or 10 μM
Protocol: Two thousand cells per well were seeded in 96-well clear bottom plate in triplicate (Lonza). Sixteen hours after seeding, NE (Sigma-Aldrich) at 0.5 to 5 μM final concentration or BGJ398 at 0.75 μM final concentration (Selleckchem) was added to culture. To test the effect of BGJ398t on KPr^p53A^React cells, escalating doses ranging from 0 to 10 μM final concentrations were used. To detect luciferase activity (proportional to number of cells in culture), Luciferin (PerkinElmer) was added 1:200 from stock according to the manufacturer's instructions and luminescence was measured with a Victor spectrophotometer (PerkinElmer).

KPr^p53A cells = assay: In vitro co-culture of dormant tumor cells with PMN (count of GFP+ cells); format: cell-based, mouse; conditions: KPr^p53A
Protocol: (§1) The KPr cell line (16) was maintained in RPMI 1640 medium (Corning) and 10% FBS (Gibco). Treatment of KPr cells with 250 nM 4-hydroxytamoxifen (4-OHT, Sigma-Aldrich) induced p53 expression. p53-induced cells (KPr^p53) were stained with CellTrace dye for 20 min at 37° C. according to the manufacturer's instructions (Life Technologies) and seeded at 8500 cells/cm^2 in culture in a T175 tissue culture-treated flask (Gibco). After 7 days, cells were detached and sorted based on the CellTrace dye intensity as proliferating (KPr^p53P, with lower CellTrace) and arrested cells (KPr^p53A, with higher-intensity CellTrace; see FIG. 1A for representative image). LL2 cells were seeded at 1000 cells/cm2 and treated for 3 days with 2.5 μM cisplatin (Selleckchem). After that, cells were stained with CellTrace and sorted as described above. OVCAR3 cell senescence was induced by treating 5×10^4 cells/cm2 with 0.5 μM cisplatin for 72 hours. After that time, cells were stained with CellTrace and sorted. A549 senescence was induced by 72-hour treatment with 4 μM cisplatin and cells were sorted after staining with CellTrace. Time points for sorting were chosen as the best to observe separation between arrested and proliferating cells. Cells were sorted on Astrios (Beckman Coulter) or Melody (Becton Dickinson) fluorescence-activated cell sorters.
(§2) Arrested tumor cells were plated at 100 cells/cm^2 in a 48-well tissue culture-treated plate (Costar) for coculture experiments. After 24 hours, PMN-MDSC or PMN were added at indicated ratios. Cocultures were maintained for 48 hours in RPMI 1640+10% FBS in the presence of mouse recombinant GM-CSF (10 ng/ml; Rocky Hill) to ensure neutrophil viability. All control conditions were in the presence of media with GM-CSF. All indicated supplements (NE, S100A8/A9, BGJ398, ICI 118-551, IL-2, MPO inhibitor, LPS, lipids, PMA, and thapsigargin 1 μM) were added to culture at the same time as PMN and maintained for 48 hours. After that, media were removed and replaced by fresh media without GM-CSF. After 1 week, GFP^+ cells in wells were counted via an inverted microscope. When lipid extracts were used, lipids were added to dormant cells in culture at 1 to 0.05 or 0.01 nmol as indicated in each experiment.

[2] = system: LL2^cisA and AT-3^DoxA cells; assay: In vitro co-culture of chemotherapy-arrested mouse tumor cells with PMN; format: cell-based; conditions: LLC^cisA
Protocol: as §1, §2

[3] = system: A549^cisA and OVCAR3^cisA cells; assay: In vitro co-culture of chemotherapy-arrested human tumor cells with human PMN; format: cell-based
Protocol: as §1, §2

LL2^cisA cells = assay: In vivo stress induction, C57BL/6 mice injected with LL2^cisA cells; set-up: species or system mouse
Source text: A total of 2.5×10^4 KPr^p53A cells were intravenously injected to NOD/SCID mice. Beginning 3 weeks after injection, mice were imaged weekly. Luciferin (PerkinElmer) was intraperitoneally injected in mice before imaging according to the manufacturer's instruction. Mice were imaged with IVIS Spectrum In Vivo Imaging System (IVIS, PerkinElmer) to detect luminescent signal coming from growing cancer cells. Mice were put under anesthesia in the induction chamber with isoflurane vaporizer set to 2.5%, at a flow rate of ˜1.5 liters/min. Mice were then transferred in the IVIS imaging stage nose cone inside the IVIS manifold (IVIS manifold nose cones flow set to ˜0.25 LPM). Animals were monitored by video during imaging. Once the images of luciferase/luciferin activity were acquired, the anesthesia was turned off and the animals were returned to their cages. […] Analysis and quantification were performed with IVIS imaging system Living Image Software 4.7.4 (PerkinElmer). […] When signal was detected, mice were sacrificed, and bioluminescent images of the harvested lung were taken. […] If no bioluminescence was detected in lungs after 80 days from last PMN injection, experiments were terminated, and lung tissue were collected. […] Bioluminescence was not detected in any LL2^CisA-injected mice at 3 weeks after injection. Mice were treated with PMN or PMN-MDSC and analyzed as described above. […]

[4] = system: patients with prostate cancer; conditions: cited from earlier work

For `CCN1CCN(c2ccc(Nc3cc(N(C)C(=O)Nc4c(Cl)c(OC)cc(OC)c4Cl)ncn3)cc2)CC1` [BGJ398, infigratinib], the “proliferation of KPr^p53A^react cells” value [1] was “abrogated cell proliferation”, the “proliferation of KPr^p53P cells” value [1] was “did not affect proliferation of tumor cells” and the “proliferation of parental KPr cells” value [1] was “did not affect proliferation of tumor cells”. The “reactivation of KPr^p53A cells by PMN treated with S100A8/A9 or NE, effect of FGFR blockade” value (KPr^p53A cells) was “abrogated their reactivation by PMN treated with S100A8/A9 or NE”, the “reactivation of LLC^cisA cells by PMN treated with S100A8/A9 or NE, effect of FGFR blockade” value [2] was “abrogated their reactivation by PMN treated with S100A8/A9 or NE” and the “reactivation of A549^cisA cells by PMN treated with S100A8/A9 or NE, effect of FGFR blockade” value ([3]; A549^cisA) was “abrogated their reactivation by PMN treated with S100A8/A9 or NE”. For the same compound, the “reactivation of OVCAR3^cisA cells by PMN treated with S100A8/A9 or NE, effect of FGFR blockade” value ([3]; OVCAR3^cisA) was “abrogated their reactivation by PMN treated with S100A8/A9 or NE” and the “mice with lung tumor lesions despite exposure to stress” value (LL2^cisA cells; 30 mg/kg, 3 weeks of stress) was 0 of 4.
In the case of `COc1cccc2c1c(O)c(C(=O)N(C)c1ccc(C(F)(F)F)cc1)c(=O)n2C` [tasquinimod], the progression-free survival ([4]; patients with prostate cancer, compared to placebo) is listed as “prolonged progression-free survival compared to placebo”, the disease-free survival ([4]; randomized phase III trial) is listed as “increased disease-free survival” and the overall survival ([4]; randomized phase III trial) is listed as “did not affect overall survival”. The “frequency of tumor lesions in stressed LL2^cisA cell-bearing mice” value (LL2^cisA cells; 0.15 mg/ml in drinking water during stress induction) was “significantly (P=0.007) reduced frequency of tumor lesions; also recorded: reverting the stress-induced reactivation of dormant tumor cells in mice”.
